Experimental data as given in patent publication US9862684B2, “Modulation of K2P channels” (The Regents of the University of California, priority 2013, dated 2018).
“And” between values parts separate entries of the source, which are not always exact repeats. Equal entries are not always repeated. Where two headings read alike, the source gives them in different places.

How the values were obtained:
K2P4.1 (TRAAK) = target: T1, K2P4.1 (TRAAK) (Mus musculus, UniProt O88454); experiment: Two-electrode voltage clamp, Xenopus oocytes expressing K2P4.1 (TRAAK); format: cell-based, Murine
T1 construct: expressed in transfected cells; host or cells: Xenopus oocytes
T1 sequence (O88454 1-398): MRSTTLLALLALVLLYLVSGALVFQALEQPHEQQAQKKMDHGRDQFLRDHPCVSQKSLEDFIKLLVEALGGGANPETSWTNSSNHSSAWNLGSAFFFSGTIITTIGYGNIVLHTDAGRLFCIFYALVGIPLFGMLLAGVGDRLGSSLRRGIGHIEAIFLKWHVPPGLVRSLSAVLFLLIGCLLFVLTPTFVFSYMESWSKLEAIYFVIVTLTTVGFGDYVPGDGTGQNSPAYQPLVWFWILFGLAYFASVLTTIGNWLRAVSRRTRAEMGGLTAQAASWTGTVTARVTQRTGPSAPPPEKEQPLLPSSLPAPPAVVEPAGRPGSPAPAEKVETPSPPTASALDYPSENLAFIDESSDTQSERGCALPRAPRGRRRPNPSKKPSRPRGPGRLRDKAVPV
Method: FIG. 7 ML67-33 is a selective activator of heat- and mechanosensitive K2P channels. a-f, Exemplar I-V curves showing the effect of ML67-33 on a, K2P10.1 (TREK-2), b, K2P4.1 (TRAAK), c, K2P3.1 (TASK-1), d, K2P9.1 (TASK-3), e, K2P5.1 (TASK-2), and f, K2P18.1 (TRESK) measured in Xenopus oocytes in 2 mM [K^+]o pH 7.4. Currents were elicited by a voltage ramp from −150 to 50 mV, from a holding potential of −80 mV. g, Quantification of the effect of ML67-33 on the indicated channels. Data (mean±s.e., n≧6, N≧2) was normalized to basal channel activity and fitted to the Hill equation. […] Error bars indicate s.e., n≧6, N≧2.
Murine K2P channels were cloned into pGEMHE/pMO {Bagriantsev, 2011}, IRES-GFP (Invitrogen), or pYES2-MET25 (high copy 2μ, URA3) {Minor, 1999} for expression in oocytes, HEK-293T cells, and yeast, respectively, using standard molecular biology procedures, and verified by DNA sequencing.
Two-electrode voltage clamp recordings were performed from defolliculated stage V-VI Xenopus oocytes 24-48 hours after injection with 0.015-6.0 ng cRNA, using microelectrodes (0.3-3.0 MΩ) filled with 3M KCl. Data was acquired using the GeneClamp 500B (MDS Analytical Technologies) amplifier controlled by the pClamp software (Molecular Devices), and digitized at 1 kHz using Digidata 1332A (MDS Analytical Technologies). […]

K2P2.1 (TREK-1) = target: T2, K2P2.1 (TREK-1) (Mus musculus, UniProt P97438); experiment: Two-electrode voltage clamp of Xenopus oocytes expressing K2P2.1 (TREK-1); format: cell-based, Murine
T2 construct: expressed in transfected cells; host or cells: Xenopus oocytes (cRNA injection, pGEMHE/pMO)
T2 sequence (P97438 1-411 isoform P97438-2): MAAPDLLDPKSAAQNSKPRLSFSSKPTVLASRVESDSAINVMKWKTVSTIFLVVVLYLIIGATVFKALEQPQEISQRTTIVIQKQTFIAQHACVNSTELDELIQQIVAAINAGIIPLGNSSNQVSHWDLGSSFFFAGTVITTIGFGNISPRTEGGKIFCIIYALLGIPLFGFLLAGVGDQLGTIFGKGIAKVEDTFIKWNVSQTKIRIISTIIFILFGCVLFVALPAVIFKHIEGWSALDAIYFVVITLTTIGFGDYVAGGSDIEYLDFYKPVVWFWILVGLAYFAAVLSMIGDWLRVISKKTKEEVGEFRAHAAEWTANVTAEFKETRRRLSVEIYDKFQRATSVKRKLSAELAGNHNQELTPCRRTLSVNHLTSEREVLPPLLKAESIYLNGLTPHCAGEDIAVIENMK
Method: Two-electrode voltage clamp recordings were performed from defolliculated stage V-VI Xenopus oocytes 24-48 hours after injection with 0.015-6.0 ng cRNA, using microelectrodes (0.3-3.0 MΩ) filled with 3M KCl. […] Recording solutions (mM): 2K (96 NaCl, 2 KCl, 1.8 CaCl2, 2 MgCl2), 90K (90 KCl, 8 NaCl, 1.8 CaCl2, 2 MgCl2), were buffered 5 mM HEPES pH 7.4. For K2P recordings, currents we elicited by a 1 second long ramp from −150 to +50 mV from a holding potential of −80 mV (2K), or −100 to +50 mV from a holding potential of 0 mV (90K). For KCNQ2 recordings, currents were elicited by a step protocol from −120 to 60 mV, in 20 mV increments, from a holding potential of −80 mV. […] Currents were elicited by a 1 second long ramp from −150 to +50 mV from a holding potential of −80 mV.

CC1(C)c2cc(Cl)ccc2N(CCc2nnn[nH]2)c2ccc(Cl)cc21 [ML67-33, 2,7-dichloro-9,9-dimethyl-10-[2-(1H-tetrazol-5-yl)ethyl]acridine]
EC50 (K2P4.1 (TRAAK); Xenopus oocytes, 2 mM [K+]o pH 7.4): 27.3 ± 1.2 µM
Emax (fold) (K2P4.1 (TRAAK); at 100 μM (FIG. 7 legend), ** in Table 1): 14.7±1.1 fold and 14.7±1.12 fold
EC50 (K2P2.1 (TREK-1); Xenopus oocytes, 2 mM [K+]o pH 7.4, data at 0 mV, normalized to basal activity, Hill fit, read-out: EC50): 36.3 ± 1.04 µM
Emax (fold) at 100 μM (K2P2.1 (TREK-1); Xenopus oocytes, at 100 μM (FIG. 4, 7 legends), marked ** in Table 1, footnote not given): 11.1±0.4 fold
Emax (fold) (K2P2.1 (TREK-1); Xenopus oocytes, fold over basal current, no concentration stated): 11.1 ± 0.4 fold
response of K2P2.1 (TREK-1) to ML67-33 with C-type gate stabilized (in words) (K2P2.1 (TREK-1); high extracellular potassium, 90 mM [K+]o): reduced the response
EC50 (K2P2.1 (TREK-1); spans oocytes and HEK cells, read-out: concentration at which the compound acts (EC50 range)): 9.7 to 36.3 µM
